This note sets out measurements from patent publication US20250154157A1, “HETEROCYCLIC COMPOUNDS USEFUL FOR TREATING A ERK5-MEDIATED DISEASE” (Cancer Research Technology Limited, priority 2022, published 2025).

Holding throughout (type): cell-based
The test system of test [1] is TNBC cells (MDA-MB-231, MDA-MB-468 and SUM159). Nature of the test: Immunofluorescence, morphology of TNBC cells (FIG. 10). The following applies: 1 μM OS1 or 2.5 μM AX15836; MDA-MB-231, MDA-MB-468, SUM159. Here is the method: (§1) Cells were seeded and treated. Media was aspirated, cells were washed with PBS and subsequently fixed in 10% formalin for 10 minutes. Fixed cells were washed in PBS and then permeablised with 0.1% (v/v) Triton-100 in PBS for 10 minutes. Cells were washed with PBS and the non-specific binding sites were blocked by incubating with 1% BSA for 30 minutes. Targets of interested were identified by incubating with 100 μl of primary antibody diluted in 1% BSA (see table) overnight at 4° C. After washing with PBS, samples were further incubated with species specific secondary antibody coupled to fluorescent tags (see antibody table) for 1 hour in the dark at room temperature. Some samples were further incubated with 100 μl of 1:200 phalloidin (Invitrogen, A12381) in 1% BSA for 2 hours at room temperature to identify actin filament structures. The EZ-slides casing was dismantled as described in manufacturer's instruction and slides were washed in distilled H2O. Samples were incubated with one drop of Mounting Medium with DAPI (abcam) for 5 minutes in the dark at room temperature to visualise the nuclei. A coverslip was added to each slide and allowed to dry at room temperature. Images were acquired on a 3D-Histech Pannoramic-250 microscope slide-scanner using a 20×/0.80 Plan Apochromat objective (Zeiss) and the DAPI, FITC and TRITC filter sets. […] Images were then processed and analysed using ImageJ. […]

Test [2] deals with EMT, angiogenesis and pro-tumour inflammation genes (N-cadherin, cytokeratin, B1-integrin, VEGF, IL6, IL1b, E-cadherin). Description: qRT-PCR, mRNA levels of EMT, angiogenesis and inflammatory regulators in TNBC cell lines (FIG. 11). The source says: qRT-PCR: Total RNA was isolated from cells using TRIZOL and/or the miRNeasy mini kit (Qiagen). We carried out cDNA synthesis as previously described by Green, D., Eyre, H., Singh, A. et al (Targeting the MAPK7/MMP9 axis for metastasis in primary bone cancer. Oncogene 39, 5553-5569 (2020)). We performed qPCR using the SYBR Green I core kit (Eurogentec). PCR products were detected in the ABI PRISM® 7700 sequence detection system (Thermo Fisher Scientific). We analysed results using the […]. Gene expression was normalised to PGK1 or ACTB.
Relative mRNA levels, compared to internal control PGK1 or ACTB, in three triple negative breast cancer cell lines: MDA-MB-231, MDA-MB-468 and SUM159.
(Real-time PCR tracks product formation cycle by cycle.)

For test [3], the target named is T1, p-ERK5 (Homo sapiens, UniProt Q13164).
T1 construct: endogenous in cells; host or cells: MDA-MB-231, MDA-MB-468, SUM159
T1 sequence (Q13164 whole entry): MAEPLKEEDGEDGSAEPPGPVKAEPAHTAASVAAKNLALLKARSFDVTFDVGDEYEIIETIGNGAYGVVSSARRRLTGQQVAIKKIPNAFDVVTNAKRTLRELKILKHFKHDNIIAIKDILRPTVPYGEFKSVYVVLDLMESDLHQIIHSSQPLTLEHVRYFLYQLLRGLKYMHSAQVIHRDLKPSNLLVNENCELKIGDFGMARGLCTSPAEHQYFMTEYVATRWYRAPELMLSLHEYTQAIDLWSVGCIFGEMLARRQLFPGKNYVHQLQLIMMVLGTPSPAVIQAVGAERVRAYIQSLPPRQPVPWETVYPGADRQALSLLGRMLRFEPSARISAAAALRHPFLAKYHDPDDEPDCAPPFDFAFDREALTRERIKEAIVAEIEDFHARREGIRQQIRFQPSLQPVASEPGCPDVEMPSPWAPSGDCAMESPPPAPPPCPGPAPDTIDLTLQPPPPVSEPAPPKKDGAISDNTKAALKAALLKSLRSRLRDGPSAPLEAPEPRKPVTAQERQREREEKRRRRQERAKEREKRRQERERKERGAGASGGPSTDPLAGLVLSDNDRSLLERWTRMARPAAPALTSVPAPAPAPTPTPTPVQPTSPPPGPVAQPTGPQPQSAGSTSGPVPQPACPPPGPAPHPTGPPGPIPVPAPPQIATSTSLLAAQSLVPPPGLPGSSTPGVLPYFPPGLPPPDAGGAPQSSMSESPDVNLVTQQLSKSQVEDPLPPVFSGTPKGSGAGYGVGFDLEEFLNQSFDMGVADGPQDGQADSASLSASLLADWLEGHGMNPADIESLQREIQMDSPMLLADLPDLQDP
Nature of the test: Immunoblotting in 3 TNBC cell lines (FIG. 8): phospho-ERK5 levels. The following applies: at higher doses. Here is the method: (§2) We extracted proteins in RIPA assay buffer containing protease and phosphatase inhibitors. We resolved extracts (30 μg) by SDS/PAGE and electrophoretically transferred to an Immun-Blot® PVDF membrane (Bio-Rad). Membranes were saturated in 3% non-fat dry milk or 3% BSA and probed overnight at 4° C. with antibodies (1:1,000 dilution unless otherwise indicated) to ERK5, P-ERK5, ERK1/2, BRD4, MEK5 and β-actin. We detected immunocomplexes by enhanced chemiluminescence with IgG coupled to horseradish peroxidase as the secondary anti-rabbit and anti-mouse antibodies (Abcam).
(§3) Left hand side panels are Western blot images, showing the relative expression of proteins in response to a range of doses of OS1. Right hand side panels are graphs quantifying the western blot images to show ERK5, phospho-ERK5, ERK1/2 and BRD4 protein levels relative to the loading control β-actin.

Test [4] deals with T2, MEK5 (Homo sapiens, UniProt Q13163).
T2 construct: endogenous in cells; host or cells: MDA-MB-231, MDA-MB-468, SUM159
T2 sequence (Q13163 1-448): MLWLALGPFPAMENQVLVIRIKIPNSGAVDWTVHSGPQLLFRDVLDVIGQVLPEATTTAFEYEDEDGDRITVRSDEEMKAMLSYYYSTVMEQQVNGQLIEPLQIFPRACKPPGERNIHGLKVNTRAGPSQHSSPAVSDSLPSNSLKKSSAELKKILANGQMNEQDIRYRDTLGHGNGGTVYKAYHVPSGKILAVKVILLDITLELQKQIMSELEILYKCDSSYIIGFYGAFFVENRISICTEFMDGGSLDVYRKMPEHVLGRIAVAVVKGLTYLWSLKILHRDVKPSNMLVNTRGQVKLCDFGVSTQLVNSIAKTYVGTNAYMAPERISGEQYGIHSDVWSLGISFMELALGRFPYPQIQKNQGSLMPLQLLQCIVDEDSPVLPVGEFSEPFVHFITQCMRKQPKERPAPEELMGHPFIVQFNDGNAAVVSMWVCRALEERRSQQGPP
Nature of the test: Repeated dosing of OS1 up to 2 weeks, immunoblotting (FIG. 9): MEK5. The following applies: 1 μM every 48 h for up to two weeks, TNBC cell lines. Here is the method:
(§4) We extracted proteins in RIPA assay buffer containing protease and phosphatase inhibitors. We resolved extracts (30 μg) by SDS/PAGE and electrophoretically transferred to an Immun-Blot® PVDF membrane (Bio-Rad). Membranes were saturated in 3% non-fat dry milk or 3% BSA and probed overnight at 4° C. with antibodies (1:1,000 dilution unless otherwise indicated) to ERK5, BRD4, MEK5 and β-actin. We detected immunocomplexes by enhanced chemiluminescence with IgG coupled to horseradish peroxidase as the secondary anti-rabbit and anti-mouse antibodies (Abcam).

Test [5] has as its system ERK1/2. Description: Repeated dosing of OS1 up to 2 weeks, immunoblotting (FIG. 9): ERK1/2. The following applies: 1 μM every 48 h for up to two weeks, TNBC cell lines.
The subject of test [6] is ERK1/2. Description: Immunoblotting, specificity testing in 3 TNBC cell lines (FIG. 8): ERK1/2 levels. The following applies: range of doses. Here is the method: as §2, §3
(Immunoblotting shows a protein as a band on a membrane.)

The target in test [7] is T3, BRD4 (Homo sapiens, UniProt O60885). Nature of the test: Immunoblotting, comparison with Example 7 of WO2021061894 in MDA-MB-468 cells (FIGS. 12 and 13): BRD4. The following applies: 48 hours after a single dose, Comparative Example 7 at 5 μM. More on the design: endogenous in cells; host or cells: MDA-MB-231, MDA-MB-468, SUM159. Here is the method:
as §4
(§5) OS1 and OS11 degrade EKR5 at lower concentrations than Comparative Example 7. OS1 is efficacious at degrading ERK5 at doses of 0.1 μM and OS11 at 0.01 μM. In contrast, a dose of 5 μM of Comparative Example 7 is required to achieve analogous ERK5 degradation to 0.1 μM OS1 or 0.01 μM OS11.

Test [8] concerns the target T4, ERK5 (Homo sapiens, UniProt Q13164). Nature of the test: Immunoblotting, comparison with Example 7 of WO2021061894 in MDA-MB-468 cells (FIGS. 12 and 13): ERK5. The following applies: 48 hours after a single dose, relative to b-actin. More on the design: endogenous in cells; host or cells: MDA-MB-468. Here is the method:
as §4, §5

Test [9] concerns the target T3, BRD4. Description: Repeated dosing of OS1 up to 2 weeks, immunoblotting (FIG. 9): BRD4. More on the design: endogenous in cells. The following applies: 1 μM every 48 h for up to two weeks, TNBC cell lines. Here is the method:
as §4

For test [10], the target named is T4, ERK5. Description: Immunoblotting, 8 point dose response to OS1 in 3 TNBC cell lines (FIG. 8): ERK5 levels. Further details: endogenous in cells; host or cells: MDA-MB-231, MDA-MB-468, SUM159. Here is the method:
as §2, §3

Test [11] addresses T4, ERK5. Description: Immunofluorescence, ERK5 staining in TNBC cells (FIG. 10). Further details: endogenous in cells; host or cells: MDA-MB-231, MDA-MB-468, SUM159. The following applies: 1 μM OS1, TNBC cell lines. Here is the method: as §1
Test [12] deals with T3, BRD4. Nature of the test: Immunoblotting, specificity testing in 3 TNBC cell lines (FIG. 8): BRD4 levels. Further details: endogenous in cells. The following applies: range of doses. Here is the method:
as §2, §3

Setting [13] is: 24 h treatment, mRNA relative to PGK1 or ACTB, three TNBC cell lines.

T4 sequence (Q13164 whole entry): as the sequence (Q13164 whole entry) above

In the case of `CCOc1cc(C(=O)N2CCC(N3CCN(C)CC3)CC2)ccc1Nc1ncc2c(n1)N(S(C)(=O)=O)c1ccccc1C(=O)N2C` [AX15836, 5,11-Dihydro-2-[[2-ethoxy-4-[[4-(4-methyl-1-piperazinyl)-1-piperidinyl]carbonyl]phenyl]amino]-5-methyl,11-(methylsulfonyl)-6H-pyrimido[4,5-b][1,4]benzodiazepin-6-one, reference compound], the “effect on morphology of TNBC cells” value in test [1] is on record as “does not”. The “expression of genes that promote EMT, migration and metastatic behaviour (N-cadherin, cytokeratin, B1-integrin), angiogenesis (VEGF) and pro-tumour inflammation (IL6, IL1b)” value in test [2] (setting [13]) was “not”.
On to `CCOc1cc(C(=O)N2CCC(N3CCN(CCCCCc4cccc5c4C(=O)N(C4CCC(=O)NC4=O)C5=O)CC3)CC2)ccc1Nc1ncc2c(n1)N(S(C)(=O)=O)c1ccccc1C(=O)N2C` (stereo not drawn) [OS1, 2-(2,6-Dioxopiperidin-3-yl)-4-(5-(4-(1-(3-ethoxy-4-((5-methyl-11-(methylsulfonyl)-6-oxo-6,11-dihydro-5H-benzo[e]pyrimido[5,4-b][1,4]diazepin-2-yl)amino)benzoyl)piperidin-4-yl)piperazin-1-yl)pentyl)isoindoline-1,3-dione], for which the “kinase inhibitor activity (p-ERK5 on immunoblot)” value in test [3] was “reduction in p-ERK5”. In test [4], the “effect of repeated dosing on MEK5” value is reported as “unaffected”. In addition, in test [5], the “effect of repeated dosing on ERK1/2” value is on record as “no effect”. Moreover, the “off target effects on structurally similar proteins (ERK1/2)” value in test [6] is given as “no off target effects”. In test [1], the “effect on morphology of TNBC cells” value is “affects morphology”. The “degradation of off-target BRD4” value in test [7] is listed as “do not cause degradation”. Besides, the “dose most effective in affecting gene expression” value in test [2] (0.1 or 1 μM tested, 24 h) stood at 1 µM. In test [2] (setting [13]), the “expression of genes that block EMT, migration and metastatic behaviour (E-cadherin)” value was “increase in expression”; the “expression of genes that promote EMT, migration and metastatic behaviour (N-cadherin, cytokeratin, B1-integrin), angiogenesis (VEGF) and pro-tumour inflammation (IL6, IL1b)” value was “induces a loss of expression”. In test [8], the “dose efficacious at degrading ERK5 (analogous ERK5 degradation)” value was 0.1 μM. Further, the “effect of repeated dosing on BRD4” value in test [9] was “no effect”. In test [10] (TNBC cell lines), the “dose inducing the hook effect” value turned out to be 10 µM and the “most effective dose for ERK5 degradation” value stood at 1 µM. The compound further showed an ERK5 degraded in test [10] (range of TNBC cell lines (MDA-MB-231, MDA-MB-468, SUM159), western blot relative to β-actin) above 90%. For the same compound, the “ERK5 staining (green), immunofluorescence” value in test [11] is “loss of ERK5 staining”. Also, the “off target effects on known off-target of literature ERK5 inhibitors (BRD4)” value in [12] is reported as “no off target effects”.
